The text below walks through data of patent publication US20180280429A1, “APPLICATION OF NITRATE IN PREPARATION OF DRUG PREVENTING OR TREATING BONE METABOLIC DISEASES” (Capital Medical University, priority 2015, published 2018).

For data set [1], the system named is BMMSCs of ovariectomized rats. In words: BMMSC osteogenic differentiation, alizarin red staining (cells cultured from treated rats). As to conditions: BMMSC from OVX rats given drinking water with nitrate, after 21 days of osteogenesis induction, vs OVX group, *P<0.05. The format is cell-based, SD rats. An excerpt:
(§1) 12-week-old female SD rats were selected for the osteoporosis model and bilateral ovaries of them were removed. The experiment objects were divided into 3 groups: the sham operation group (Sham), the ovariectomized group (OVX) and the nitrate group (Nitrate), and there were 10 rats in each group. In the nitrate group, drinking water with sodium nitrate was given on the second day after ovariectomy (ovarianectomy) at a concentration of 2.5 mmol/L, and the daily intake of nitrate in each rat was about 0.5 mmol/Kg bw, the water with nitrate was given for 12 weeks, while normal drinking water was given in the other groups.
(§2) After necropsy, the skin of the hind limbs was removed. After exposing the femur and tibia, the bone marrow was extracted with a 1 mL syringe to flush out from the stump. Cells were cultured in the α-MEM complete medium (containing 10% of bovine serum), and subcultured after the cells were clonally grown until 80% of the fusion.
Preparation of osteoinductive medium: adding 2 mmol/L glutamine, 100 U/ml penicillin and 100 μg/ml streptomycin, 10 mM β-glycerophosphate sodium, and 10 nM Dexamethasone and 50 mg/L vitamin C to 10% fetal bovine serum α-MEM medium. […]

In data set [2] the test system is ovariectomized rats. In words: Tibia weight, body weight and adverse reactions in ovariectomized rats. The format is in vivo, SD rats. The following applies: OVX rats.
From the text: as §1

For data set [3], the system named is BMMSCs of ovariectomized rats. In words: BMMSC proliferation by the CCK8 method (cells cultured from treated rats). Format: cell-based, SD rats. The following applies: third generation cells from OVX rats given drinking water with nitrate, vs OVX group, *P<0.05.
From the text: as §1, §2
100 μl of cell suspension was inoculated in the 96-well plate, and the plate was pre-cultured in the incubator for 24 hours (under the condition of 37° C., 5% CO2). Then the plate was incubated in an incubator for 72 hours. 100 μl of culture medium was added to each well and 10 μl of CCK-8 solution was added to each hole. After 2 hours, the absorbance at 450 nm was measured with an enzyme labeled instrument.
Background: Tetrazolium assays rely on reduction of a dye to a coloured formazan, in cell work by metabolically active cells.

A short description of data set [4]: Measurement of nitrate and nitrite in serum (Griess). As to conditions: after drinking water containing nitrate for 3 months, *p<0.05. The format is in vivo, SD rats.
From the text: as §1
(1) Preparation of the standard: the double dilution of the original standard was 200 μM-3.125 μM
(2) Determination of Nitrite Concentration:
1) Adding 50 μl reaction buffer to blank holes;
2) Adding 50 μl sample or standard to reaction buffer;
3) Adding 50 μl of reaction buffer to each hole in sequence;
4) Adding 50 μl of Griess Reagent I in each hole in sequence;
5) Adding 50 μl of Griess Reagent II to each hole and incubating at room temperature for 10 minutes;
6) Reading the OD value at 540 nm with a microplate reader and the value at 690 nm is used as calibration.
(3) Determination of Nitrate Concentration: […]
7) Reading the OD value at 540 nm with a microplate reader and the value at 690 nm is used as calibration.
Background: The Griess reaction detects nitrite, a stable product of nitric oxide.

For another data set, the system named is TGF-β1, IFN-γ and IL-17. Description: Detection of TGF-β1, IFN-γ and IL-17 in serum. Format: in vivo, SD rats. As to conditions: OVX rats, drinking water with nitrate, 12 weeks, vs OVX group, *P<0.05.
From the text: as §1
(2) Detection of TGF-β1, IFN-γ and IL-17
1) The serum is diluted for 10 times, and 0.1 ml of which is placed into the 96-well plate of the kit. At the same time, the standard in the kit is taken and diluted in proportion, and then placed into the 96-well plate and incubated at 37° C./at room temperature for 30 minutes/1 hour according to the instructions. The obtained object is washed with a buffer for 3 times and each time lasts for 3 minutes.
2) 100 μl enzyme-labeled antibody is added for incubating for 15 minutes/30 minutes at 37° C./at room temperature. The obtained object is washed for 3 times and each time lasts for 3 minutes.
3) 100 μl substrate solution is added and then incubated for 15 minutes at room temperature/37° C.
4) 100 μl stop solution is added to stop the reaction for 5 minutes.
5) The readings of the enzyme labeled instrument at 450 nm is obtained.

For data set [5], the system named is regulatory T lymphocytes (Treg). In words: Detection of the peripheral blood regulatory T cell ratio by flow cytometry. The format is in vivo, SD rats. The following applies: OVX rats, drinking water with nitrate, 12 weeks, vs OVX group, *P<0.05.
From the text: as §1
(1) The Detection of the Peripheral Blood Regulatory T Cell Ratio in the Rats
1) Blood was collected from the abdominal aorta of the rats in each group and the serum was collected.
2) 100 μl 0.1% BSA is added for resuspending, and then Anti-CD4, Anti-CD25 are added for incubating on ice for 30 minutes while avoiding light.
3) The obtained mixture is centrifuged at 1500 rpm for 10 minutes, and then the supernatant is removed and 0.1% BSA is added for resuspending.
4) The membrane-permeation solution is added on 4° C., 10 minutes.
5) The obtained mixture is centrifuged at 1500 rpm for 10 minutes, and then the supernatant is removed and 0.1% BSA is added for resuspending.
6) Anti-Foxp3 is added for incubating on ice for 30 minutes while avoiding light. […]
A general note: Flow cytometry measures light scatter and fluorescence of single cells or particles in a stream.

The test system of data set [6] is ovariectomized rats. In words: Bone density detection by Micro-CT of the upper tibia in the ovariectomized rat osteoporosis model. Format: in vivo, SD rats. The following applies: OVX rats, 12 weeks, vs OVX group.
[7] abbreviates: sodium nitrate 2.5 mmol/L in drinking water, *P<0.05.

As for `O=[N+]([O-])[O-].[Na+]` [nitrate, sodium nitrate], the “osteogenic differentiation of BMMSCs, alizarin red staining and quantification (FIG. 5B)” value in data set [1] is “significantly enhanced osteogenic differentiation”. For the same molecule, the adverse reactions result with ovariectomized rats [2] (nitrate in drinking water, at the time of preservation of bone mass) is “no obvious adverse reactions”. Moreover, the “body weight (weight gain) (FIG. 2B)” value in the data set with ovariectomized rats [2] (sodium nitrate 2.5 mmol/L in drinking water, 12 weeks) is on record as “no significant effect on the weight gain”. In addition, the “tibia weight (FIG. 2A)” value in the data set on ovariectomized rats [2] (sodium nitrate 2.5 mmol/L in drinking water, 12 weeks, vs OVX group) is “relieve the decrease of tibia weight”. For the same molecule, in data set [3], the “proliferation of BMMSCs, OD450 value by CCK8 (FIG. 5A)” value is recorded as “significantly reduced the proliferation”. Besides, in data set [4], the “content of nitrate in serum (FIG. 3A)” value is given as “significantly increased” and the “content of nitrite in serum (FIG. 3B)” value is recorded as “significantly increased”. In addition, in the data set with TGF-β1, IFN-γ and IL-17, the “level of IFN-γ in serum (FIG. 4C)” value is “alleviate the up-regulation”, the “level of IL-17 in serum (FIG. 4D)” value is “alleviate the up-regulation” and the “level of TGF-β1 in serum (FIG. 4B)” value was “alleviate the down-regulation”. For the same molecule, the “proportion of regulatory T lymphocytes in peripheral blood CD4 positive cells (FIG. 4A)” value in data set [5] is on record as “reduce the decline”. In addition, in the data set with ovariectomized rats [6] (sodium nitrate 2.5 mmol/L in drinking water (about 0.5 mmol/Kg bw daily)), the “loss of tibial bone mass (MicroCT of the upper tibia, FIG. 1B)” value was “significantly relieved”. In addition, in the data set on ovariectomized rats [6] (setting [7]), the “bone density (BMD), MicroCT quantitative analysis (FIG. 1C)” value was “partially recover”; the “bone volume fraction (BV/TV), MicroCT quantitative analysis (FIG. 1D)” value is given as “partially recover”; the “trabecular number (Tb.N), MicroCT quantitative analysis (FIG. 1F)” value is “partially recover”; the “trabecular thickness (Tb.Th), MicroCT quantitative analysis (FIG. 1E)” value was “partially recover”.
